One may read the IC50 as the concentration that gives 50% inhibition.

For one test, the system named is A549 cells. In words: MTT cytotoxicity assay, A549. The test is classed as cell-based. The settings on record: Homo sapiens, read-out: Cytotoxicity IC50 A549. Here is the method: Antiproliferative assays were performed as described.
In another test the test system is tubulin. In words: Tubulin polymerization time course (absorbance 350 nm). It is filed as biochemical, calf. The settings on record: 25 μM tubulin in PEDTA buffer, 35 μM compound, 37 °C. Here is the method: Purified calf brain tubulin and chemicals were obtained as previously described. Tau-mCherry was expressed and purified as described previously. Human Kif5B-EGFP (amino acids 1-905), containing a C terminal fluorescent-tag followed by a 3C protease cleavage site and a 6 × His-tag was expressed and purified as in with some modifications. Prior to purification, cells were resuspended in 1:1 ratio of lysis buffer (30 mM HEPES pH 7.5, 300 mM NaCl, 0.5 mM ATP, 5% glycerol, 20 mM imidazole, […]) supplemented with 1× Protease inhibitor cocktail and benzonase to the final concentration of 25 units/ml. Cells were homogenized by repeated pipetting. Cells were lysed by spinning for 45 min at 40,000 rpm in 45 Ti fixed-angle rotor (Beckman Coulter) at 4 °C. The supernatant was incubated with pre-equilibrated HisPUR NiNTA agarose resin (Thermo Fisher Scientific) for 1 h in a tightly closed gravity-flow column (Thermo Fisher Scientific) at 4 °C by slowly rotating. Subsequently, the resin was washed once lysis buffer and then with buffer B (30 mM HEPES pH 7.5, 300 mM NaCl, 0.5 mM ATP, 5% glycerol, 30 mM imidazole, […]). The protein was eluted from the resin after an overnight cleavage of the 6 × His-tag with 3C HRV protease in lysis buffer at 4 °C. The eluted protein was further purified via size exclusion chromatography on Superdex 200 10/300 GL column equilibrated in exclusion buffer (30 mM HEPES pH 7.5, 300 mM NaCl, 0.5 mM ATP, 5% glycerol, […]). Peak fractions were analyzed via SDS-PAGE, pooled and the protein was concentrated with Amicon Ultra-15 Centrifugal Filter tubes (Millipore). Purified proteins were aliquoted, snap-frozen in liquid N2, and stored at −80 °C.
Tubulin polymerization assays were performed in PEDTA (10 mM NaPi, 1 mM EDTA, 0.1 mM GTP pH 7.0) or GAB (10 mM NaPi, 3.4 M glycerol, 1 mM EGTA, 0.1 mM GTP pH 6.7) buffers supplemented with 0.9 mM GTP and 4 mM MgCl2.

The test system of test [1] is Kb-V1 cells (overexpressing PgP). As to the kind of experiment: MTT cytotoxicity assay, Kb-V1. The settings on record: for IC50: Homo sapiens, KB-V1, 48 h, read-out: Cytotoxicity IC50 Kb-V1; for R/S (resistant to sensitive ratio): IC50 Kb-V1 / IC50 Kb-3.1.
Method: (§1) Antiproliferative assays were performed as described. […] Then, increasing concentrations of drugs were added and incubated for 48 h prior to the reaction with the MTT solution. IC50 values were obtained by fitting the experimental data (absorbance at 570/690 nm) to a four-parameter logistic curve using SigmaPlot 14.5 software package (Systat Software, Inc., San Jose, CA, USA) and IC50 values were expressed as mean ± SEM from three independent experiments, each performed in duplicate.
The subject of test [2] is HeLaβIII cells (overexpressing βIII tubulin isotype). As to the kind of experiment: MTT cytotoxicity assay, HeLaβIII. The settings on record: for IC50: Homo sapiens, 48 h, read-out: Cytotoxicity IC50 HeLaβIII; for R/S (resistant to sensitive ratio): IC50 HeLaβIII / IC50 HeLa. Background: Tetrazolium assays rely on reduction of a dye to a coloured formazan, in cell work by metabolically active cells.
Method: as §1

For test [3], the system named is Dynein Light Chain LC8 (retrograde transport) in SH-SY5Y cells. As to the kind of experiment: Cy5-DBP dynein binding probe tracking, live-cell imaging. As to conditions: for Cy5-DBP Distance, normalized to control / Cy5-DBP Speed, normalized to control: 1 μM PTX or 2.5 μM FTX2, 1a or 1b, mean ± SEM. It is filed as cell-based, human. The text has this:
Building on our ability to chemically modulate MT structure, we next explored how these changes influence signaling patterns involved in MAPs interactions. Given that MTs are key players in intracellular transport – guiding organelles, vesicles and chromosomes via molecular motors like dyneins and kinesins – we assessed the impact of our compounds on transport dynamics in neuroblastoma SH-SY5Y cells. We combined live-cell imaging with previously developed tracking peptides (Figure A): Cy5-DBP, which encompasses the sequence that specifically recognizes Dynein Light Chain LC8 (retrograde transport), and Cy5-KBP, with a sequence that binds to the tetratricopeptide repeat of the kinesin-1 light chain KLC1 (anterograde transport). […] However, this was for a short incubation period (1 to 2.5 h, including imaging time) to avoid mitotic arrest or compromise cell viability. We then assessed particle behavior by measuring mean track displacement and mean track velocity.
Cy5-KBP and Cy5-DBP tracking peptides were synthesized at CIB-Margarita Salas (CSIC), following a published protocol. Briefly, the peptide chains were assembled via solid phase peptide synthesis (SPPS) using fluorenylmethyloxycarbonyl (Fmoc) as N-terminal protecting group and, subsequently labeled with the organic dye cyanine 5 (Cy5) via a maleimide–thiol reaction between the N-terminal cysteine residues of the peptides and the commercially available Cy5-maleimide. The final peptides were purified via reverse phase HPLC, dissolved in DMSO to a final 2.5 mM concentration and stored in small aliquots at −20 °C. SH-SY5Y cells were seeded into μ-Slide 8-wells ibiTreat plates (ibidi, flat polymer coverslip-bottom, tissue culture treated) at a concentration of 35,000 cells/well and incubated for 48 h at 37 °C and 5% CO2. […] After this time, the culture medium was replaced by the drug working solution containing either Cy5-KBP or Cy5-DBP, and the plate was incubated for an additional 15 min at 37 °C and 5% CO2. Then, the culture medium was replaced with drug working solution without labeled peptide and the cells were imaged using a confocal laser scanning microscope Leica TCS SP8 with a 63x oil immersion objective that included a humidified incubation chamber, a CO2 controller and a heating unit. Cy5 dye was excited at 635 nm and the fluorescence emission was collected at 645–690 nm. Images were recorded every 1.793 s for 3 min as 2-layer-z-stacks. For each condition, two to three different fields were imaged in two separate experiments.
Single-peptide trajectories were tracked with the TrackMate plugin from the Fiji package software (https://imagej.net/TrackMate). Particles with an estimated blob diameter of 1–1.5 μm were detected using the Laplacian of Gaussian (LoG) detector and linked with the Linear motion LAP tracker. Only spots that were at a maximum distance of 2 μm were linked. Trajectories with less than 6 spots were discarded since they were probably artifactual, and track mean displacement and track mean velocity were calculated and normalized to control cells. Data were further analyzed with MATLAB to perform a Mean Square Displacement (MSD) analysis to determine the mode of displacement of the peptides followed over time. Briefly, for each trajectory the MSD function was calculated and its log–log representation fitted with a linear function (log(MSD(τ)) = […] x log(τ) + C). MSD curves with an R^2 coefficient <0.8 were removed. The slope (α) of each MSD curve determines the motion type of each particle and particles were classified into: constrained particles (CM) α < 1, Brownian particles (BM) α = 1, and transported particles (TM) α > 1. Two independent experiments were performed using three biological replicates (N = 6). Statistical analyses of normalized track mean displacement and track mean velocity were performed using an unpaired t test with Welch’s correction in GraphPad Prism 8 software. […]

Read-outs that look alike come from different tables or passages of the source.

As to `CC(=O)OC1C(=O)C2(C)C(OC(=O)CCCCC(=O)OC3CCc4ccccc43)CC3OCC3(OC(C)=O)C2C(OC(=O)c2ccccc2)C2(O)CC(OC(=O)C(O)C(NC(=O)c3ccccc3)c3ccccc3)C(C)=C1C2(C)C` (stereo not drawn) [1a, 7-O-(6″-O-(2‴,3‴-Dihydroinden-1‴-yl)hexanedioyl) Paclitaxel], in the test on A549 cells (A549, 48 h), the IC50 is 0.51 ± 0.04 µM. Besides, the Polymerization v max in the test on tubulin is given as 1.19 × 10^–3 min^–1. In test [1], the IC50 was above 40 µM and the “R/S (resistant to sensitive ratio)” value is above 142. Also, in test [2], the half-inhibitory concentration (IC50) is 0.51 ± 0.08 µM and the “R/S (resistant to sensitive ratio)” value is recorded as 3. Moreover, in test [3], the “Cy5-DBP Distance, normalized to control” value is given as 0.92 ± 0.01 and the “Cy5-DBP Speed, normalized to control” value is 0.98 ± 0.02.
As for `COc1ccc2c(c1)CC(NC(=O)CCCCCCCC(=O)OC1CC3OCC3(OC(C)=O)C3C(OC(=O)c4ccccc4)C4(O)CC(OC(=O)C(O)C(NC(=O)c5ccccc5)c5ccccc5)C(C)=C(C(OC(C)=O)C(=O)C13C)C4(C)C)CC2` [1b, 7-O-((S)-9″-(7‴-Methoxy-1‴,2‴,3‴,4‴-tetrahydronaphthalen-2‴-yl)amino) −9″-oxononanoyl) Paclitaxel], the IC50 in the test with A549 cells (A549, MTT, 48 h, mean ± SEM) worked out at 0.22 ± 0.02 µM. In the test with tubulin, the Polymerization v max is given as 1.44 × 10^–4 min^–1. In test [1], the IC50 was 19 µM and the “R/S (resistant to sensitive ratio)” value turned out to be 127. Also, in test [2], the IC50 turned out to be 0.72 ± 0.08 µM and the “R/S (resistant to sensitive ratio)” value is given as 7. Also, in test [3], the “Cy5-DBP Distance, normalized to control” value amounted to 0.92 ± 0.01 and the “Cy5-DBP Speed, normalized to control” value was 1.07 ± 0.01.
As for `CC(=O)O[C@H]1C(=O)[C@]2(C)[C@@H](OC(=O)[C@H](C)NC(=O)c3ccc(-c4c5cc(F)c(=O)cc-5oc5cc(O)c(F)cc45)c(C(=O)O)c3)C[C@H]3OC[C@@]3(OC(C)=O)[C@H]2[C@H](OC(=O)c2ccccc2)[C@]2(O)C[C@H](OC(=O)[C@H](O)[C@@H](NC(=O)c3ccccc3)c3ccccc3)C(C)=C1C2(C)C` [FTX2, Flutax2], the Polymerization v max with tubulin is given as 1.42 × 10^–3 min^–1. In test [3], the “Cy5-DBP Distance, normalized to control” value is given as 1.06 ± 0.02 and the “Cy5-DBP Speed, normalized to control” value stood at 1.21 ± 0.02.
As for `CC(=O)O[C@H]1C(=O)[C@@]2(C)[C@H]([C@H](OC(=O)c3ccccc3)[C@]3(O)C[C@H](OC(=O)[C@H](O)[C@@H](NC(=O)c4ccccc4)c4ccccc4)C(C)=C1C3(C)C)[C@]1(OC(C)=O)CO[C@@H]1C[C@@H]2O` [PTX, Paclitaxel], the IC50 in the test with A549 cells (A549, MTT, 48 h, mean ± SEM) is 0.0031 ± 0.0007 µM; in test [1] it was 2.7 ± 0.6 µM; in test [2], 0.0287 ± 0.0007 µM. The Polymerization v max in the test on tubulin is 1.25 × 10^–2 min^–1. In test [3] (1 μM PTX), the “reduction of Cy5-DBP particle displacement vs nontreated control cells” value is reported as “approximately 20%”.
